According to PubChem BioAssay AID1963863 (Molecular Pharmacology Branch, DTP, NCI, 2024):

System: 931267-113-T-J1-PDC KRAS spheroid with HUVEC/MSC, viability
Assay: Anticancer human tumor 931267-113-T-J1-PDC patient-derived colon adenocarcinoma cell line growth inhibition [KRAS2]
Conditions: for IC50: curve of first compound; for viability, T/C: stronger effect = lower value
Outline: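 Combination screen of spheroid viability in tumor-cell co-cultures with endothelial (HUVEC) and mesenchymal stem cell stroma. Each agent was tested in half-log dilutions, topping at clinical Cmax or at 10 microM without a known Cmax.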

[1] = second compound 0.1 µM, first compound 0.0316 µM
[2] = second compound 0.1 µM, first compound 0.1 µM
[3] = second compound 0.1 µM, first compound 0.316 µM
[4] = second compound 0.1 µM, first compound 1 µM
[5] = second compound 0.1 µM, first compound 3.16 µM
[6] = second compound 0.1 µM, first compound 10 µM
[7] = second compound 0.316 µM, first compound 0.0316 µM
[8] = second compound 0.316 µM, first compound 0.1 µM
[9] = second compound 0.316 µM, first compound 0.316 µM
[10] = second compound 0.316 µM, first compound 1 µM
[11] = second compound 0.316 µM, first compound 3.16 µM
[12] = second compound 0.316 µM, first compound 10 µM
[13] = second compound 1 µM, first compound 0.0316 µM
[14] = second compound 1 µM, first compound 0.1 µM
[15] = second compound 1 µM, first compound 0.316 µM
[16] = second compound 1 µM, first compound 1 µM
[17] = second compound 1 µM, first compound 3.16 µM
[18] = second compound 1 µM, first compound 10 µM
[19] = second compound 3.16 µM, first compound 0.0316 µM
[20] = second compound 3.16 µM, first compound 0.1 µM
[21] = second compound 3.16 µM, first compound 0.316 µM
[22] = second compound 3.16 µM, first compound 1 µM
[23] = second compound 3.16 µM, first compound 3.16 µM
[24] = second compound 3.16 µM, first compound 10 µM
[25] = second compound 10 µM, first compound 0.0316 µM
[26] = second compound 10 µM, first compound 0.1 µM
[27] = second compound 10 µM, first compound 0.316 µM
[28] = second compound 10 µM, first compound 1 µM
[29] = second compound 10 µM, first compound 3.16 µM
[30] = second compound 10 µM, first compound 10 µM
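Also: compound exposure lasted 7 days before the readout.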
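For viability, T/C in this document: 100% = DMSO vehicle control viability.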

Row | SMILES | IC50 (second compound 0.1 µM) | IC50 (second compound 0.316 µM) | IC50 (second compound 1 µM) | IC50 (second compound 3.16 µM) | IC50 (second compound 10 µM) | viability, T/C [1] | viability, T/C [2] | viability, T/C [3] | viability, T/C [4] | viability, T/C [5] | viability, T/C [6] | viability, T/C [7] | viability, T/C [8] | viability, T/C [9] | viability, T/C [10] | viability, T/C [11] | viability, T/C [12] | viability, T/C [13] | viability, T/C [14] | viability, T/C [15] | also measured
1 | CC1(C)CCC(CN2CCN(c3ccc(C(=O)NS(=O)(=O)c4ccc(NCC5CCOCC5)c([N+](=O)[O-])c4)c(Oc4cnc5[nH]ccc5c4)c3)CC2)=C(c2ccc(Cl)cc2)C1 + CC1OCC2(CCN(c3cnc(Sc4ccnc(N)c4Cl)c(N)n3)CC2)C1N | 1710 nM | 1640 nM | 1740 nM | 1670 nM | 1660 nM | 104% | 84.1% | 87.8% | 75.7% | 20.9% | 8.53% | 91% | 81.3% | 73.2% | 72.8% | 20.7% | 3.06% | 84.9% | 75.9% | 67.5% | viability, T/C [16]: 81.3%; viability, T/C [17]: 20.5%; viability, T/C [18]: 1.45%; viability, T/C [19]: 61.1%; viability, T/C [20]: 77.8%; viability, T/C [21]: 70.2%; viability, T/C [22]: 70.6%; viability, T/C [23]: 25%; viability, T/C [24]: 0.6%; viability, T/C [25]: 83.7%; viability, T/C [26]: 77%; viability, T/C [27]: 94.5%; viability, T/C [28]: 85.9%; viability, T/C [29]: 5.34%; viability, T/C [30]: 0.28%
2 | CC(C)NCC(C(=O)N1CCN(c2ncnc3c2C(C)CC3O)CC1)c1ccc(Cl)cc1 (stereo not given) + C=CC(=O)N1CCN(c2nc(=O)n(-c3c(C)ccnc3C(C)C)c3nc(-c4c(O)cccc4F)c(F)cc23)C(C)C1 | 6740 nM | 5610 nM | 4630 nM | 6030 nM | 1810 nM | 109% | 97.2% | 85.8% | 89.1% | 71.7% | 38.5% | 95.5% | 83.2% | 80.2% | 75.1% | 62.5% | 38.2% | 95.9% | 96% | 76.8% | viability, T/C [16]: 71.2%; viability, T/C [17]: 68%; viability, T/C [18]: 28.8%; viability, T/C [19]: 83.7%; viability, T/C [20]: 90.6%; viability, T/C [21]: 80.6%; viability, T/C [22]: 79.1%; viability, T/C [23]: 64.7%; viability, T/C [24]: 38.3%; viability, T/C [25]: 81.4%; viability, T/C [26]: 71.4%; viability, T/C [27]: 70.5%; viability, T/C [28]: 49.7%; viability, T/C [29]: 50.7%; viability, T/C [30]: 22.4%
